Test results taken from ChEMBL document CHEMBL2407030, “Novel nicotinic acetylcholine receptor agonists containing carbonyl moiety as a hydrogen bond acceptor” (Bioorg Med Chem Lett, 2013).
Active and inactive are the calls of the source. The calls are words filed in the database; no cut-off is given here.

Columns and labels:
[1] = target: T1, Neuronal acetylcholine receptor; alpha3/beta4 (Homo sapiens, UniProt P30926+P32297); experiment: Agonist activity at human alpha3beta4 nACHR expressed in CHO cell membranes assessed as stimulation of calcium flux by FLIPR assay relative to control; type: cell-based
[2] = target: T1, Neuronal acetylcholine receptor; alpha3/beta4; experiment: Agonist activity at human alpha3beta4 nACHR expressed in CHO cell membranes assessed as stimulation of calcium flux by FLIPR assay; type: cell-based
[3] = target: T2, Neuronal acetylcholine receptor; alpha4/beta2 (Homo sapiens, UniProt P17787+P43681); experiment: Agonist activity at alpha4beta2 nACHR in human SHEP1 cell membranes assessed as stimulation of calcium flux by FLIPR assay; type: cell-based
[4] = target: T2, Neuronal acetylcholine receptor; alpha4/beta2; experiment: Agonist activity at alpha4beta2 nACHR in human SHEP1 cell membranes assessed as stimulation of calcium flux by FLIPR assay relative to control; type: cell-based
[5] = target: Neuronal acetylcholine receptor subunit alpha-7 (Homo sapiens, UniProt P36544); experiment: Displacement of [3H]Epibatidine from human alpha7 nACHR expressed in CHO cell membranes after 2 hrs by liquid scintillation counting analysis
[6] = target: T1, Neuronal acetylcholine receptor; alpha3/beta4; experiment: Displacement of [3H]Epibatidine from human alpha3beta4 nACHR expressed in CHO cell membranes after 2 hrs by liquid scintillation counting analysis
[7] = target: T2, Neuronal acetylcholine receptor; alpha4/beta2; experiment: Displacement of [3H]Nicotine from alpha4beta2 nACHR in human SHEP1 cell membranes after 2 hrs by liquid scintillation counting analysis
[8] = test system: Rattus norvegicus; experiment: Cognitive enhancing effect in rat at 0.1 to 3 mg/kg, po by novel object recognition test; type: functional, organism-based
[9] = test system: Rattus norvegicus; experiment: Cognitive enhancing effect in rat at 0.003 mg/kg, po by novel object recognition test; type: functional, organism-based; parameters: dose 0.003 mg/kg

Neuronal acetylcholine receptor subunit alpha-7, sequence (P36544 whole entry): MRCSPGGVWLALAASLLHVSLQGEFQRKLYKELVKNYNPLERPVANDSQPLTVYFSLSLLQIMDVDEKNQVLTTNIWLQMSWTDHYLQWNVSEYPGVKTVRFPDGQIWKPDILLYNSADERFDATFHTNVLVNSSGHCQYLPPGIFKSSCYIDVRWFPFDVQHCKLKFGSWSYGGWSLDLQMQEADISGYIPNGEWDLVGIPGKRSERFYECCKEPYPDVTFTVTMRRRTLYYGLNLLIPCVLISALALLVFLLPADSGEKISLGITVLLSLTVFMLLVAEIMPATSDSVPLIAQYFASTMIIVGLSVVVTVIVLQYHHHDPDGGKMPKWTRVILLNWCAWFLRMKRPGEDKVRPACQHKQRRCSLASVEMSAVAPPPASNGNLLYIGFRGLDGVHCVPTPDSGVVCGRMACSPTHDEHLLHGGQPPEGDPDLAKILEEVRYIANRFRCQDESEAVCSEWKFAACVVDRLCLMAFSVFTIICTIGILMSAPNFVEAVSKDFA
T2 sequence (P17787 whole entry): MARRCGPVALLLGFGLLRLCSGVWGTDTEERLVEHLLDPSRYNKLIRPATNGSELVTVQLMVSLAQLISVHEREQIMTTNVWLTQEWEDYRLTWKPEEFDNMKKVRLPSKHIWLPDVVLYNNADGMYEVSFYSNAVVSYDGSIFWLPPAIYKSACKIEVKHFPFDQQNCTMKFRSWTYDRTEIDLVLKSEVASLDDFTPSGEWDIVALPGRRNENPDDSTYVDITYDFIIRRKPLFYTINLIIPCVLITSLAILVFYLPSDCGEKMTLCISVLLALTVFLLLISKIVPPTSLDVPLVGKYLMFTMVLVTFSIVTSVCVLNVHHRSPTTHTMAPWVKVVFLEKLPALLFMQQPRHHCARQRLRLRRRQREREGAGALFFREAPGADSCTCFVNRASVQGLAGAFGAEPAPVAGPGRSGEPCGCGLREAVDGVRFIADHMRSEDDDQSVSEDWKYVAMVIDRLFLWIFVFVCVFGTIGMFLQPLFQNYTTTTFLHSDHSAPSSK
T2 sequence (P43681 whole entry): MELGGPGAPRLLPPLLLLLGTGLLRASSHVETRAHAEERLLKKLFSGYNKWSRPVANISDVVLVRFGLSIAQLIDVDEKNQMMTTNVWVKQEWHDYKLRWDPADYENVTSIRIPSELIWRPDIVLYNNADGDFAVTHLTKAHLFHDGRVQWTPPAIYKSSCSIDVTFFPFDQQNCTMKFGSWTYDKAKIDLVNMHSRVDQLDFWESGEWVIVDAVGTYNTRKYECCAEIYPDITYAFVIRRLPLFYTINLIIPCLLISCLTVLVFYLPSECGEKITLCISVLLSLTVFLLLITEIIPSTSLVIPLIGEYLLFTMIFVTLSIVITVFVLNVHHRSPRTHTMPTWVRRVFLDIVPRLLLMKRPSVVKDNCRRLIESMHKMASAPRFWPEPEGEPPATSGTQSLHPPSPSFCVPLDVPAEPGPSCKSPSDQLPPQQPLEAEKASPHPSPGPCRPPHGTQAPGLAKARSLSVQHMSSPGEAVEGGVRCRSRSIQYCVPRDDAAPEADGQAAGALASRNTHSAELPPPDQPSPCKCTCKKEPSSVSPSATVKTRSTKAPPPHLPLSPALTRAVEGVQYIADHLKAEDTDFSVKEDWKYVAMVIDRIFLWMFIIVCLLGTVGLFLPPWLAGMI
T1 sequence (P30926 whole entry): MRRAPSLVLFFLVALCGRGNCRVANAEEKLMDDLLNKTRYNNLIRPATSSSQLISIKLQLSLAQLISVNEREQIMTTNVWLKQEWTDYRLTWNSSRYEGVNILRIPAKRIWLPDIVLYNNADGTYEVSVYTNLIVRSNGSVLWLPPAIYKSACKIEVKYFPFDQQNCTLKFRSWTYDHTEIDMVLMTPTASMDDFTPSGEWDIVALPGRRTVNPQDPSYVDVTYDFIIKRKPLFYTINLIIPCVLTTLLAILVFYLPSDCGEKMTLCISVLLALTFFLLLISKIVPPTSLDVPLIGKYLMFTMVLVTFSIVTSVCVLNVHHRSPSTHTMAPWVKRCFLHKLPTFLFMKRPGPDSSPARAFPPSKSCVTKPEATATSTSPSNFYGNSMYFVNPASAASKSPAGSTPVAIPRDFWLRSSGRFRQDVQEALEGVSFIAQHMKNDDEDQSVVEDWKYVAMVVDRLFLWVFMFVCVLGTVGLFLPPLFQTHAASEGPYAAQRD
T1 sequence (P32297 whole entry): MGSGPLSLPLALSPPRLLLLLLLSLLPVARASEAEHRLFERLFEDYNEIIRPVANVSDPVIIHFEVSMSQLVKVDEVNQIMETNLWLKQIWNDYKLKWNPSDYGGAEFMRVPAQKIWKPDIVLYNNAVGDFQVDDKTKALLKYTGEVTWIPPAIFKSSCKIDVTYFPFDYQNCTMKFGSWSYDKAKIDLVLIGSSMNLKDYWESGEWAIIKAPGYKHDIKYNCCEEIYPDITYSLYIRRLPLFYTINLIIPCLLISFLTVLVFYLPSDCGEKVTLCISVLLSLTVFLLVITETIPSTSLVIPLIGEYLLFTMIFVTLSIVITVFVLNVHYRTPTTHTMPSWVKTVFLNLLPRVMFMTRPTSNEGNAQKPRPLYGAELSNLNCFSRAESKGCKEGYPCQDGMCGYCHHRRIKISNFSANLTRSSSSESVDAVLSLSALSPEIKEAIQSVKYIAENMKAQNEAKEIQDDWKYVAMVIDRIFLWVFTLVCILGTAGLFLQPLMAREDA

SMILES	Emax [1] [%]	EC50 [2] [nM]	EC50 [3] [nM]	Emax [4] [%]	Ki [5] [nM]	Ki [6] [nM]	Ki [7] [nM]	Activity [8]	Activity [9]
CC(=O)N1CC2CNCC(C2)C1 (mixture of isomers)	110	13000	9900	34	3300	5500	–	–	–
O=C([C@H]1C[C@H]1F)N1CC2CNCC(C2)C1 (mixture of isomers)	130	2100	9200	7	100	150	1.4	–	–
O=C([C@H]1C[C@@H]1F)N1CC2CNCC2C1 (mixture of isomers)	90	14000	900	140	2700	810	30	–	–
CCC(=O)N1CC2CNCC(C2)C1 (mixture of isomers)	130	5900	1900	83	1600	20000	8	–	–
C[C@@H]1C[C@H]1C(=O)N1CC2CNCC(C2)C1 (mixture of isomers)	120	1600	12000	23	30	100	1	–	–
O=C([C@@H]1C[C@@H]1F)N1CC2CNCC(C2)C1 (mixture of isomers)	90	11000	400	11	300	1200	5.2	–	–
COC(=O)C1CC2CNCC(C2)C1 (mixture of isomers)	–	–	–	–	–	–	2400	–	–
O=C(c1ccco1)[C@H]1C[C@@H]2CNC[C@@H](C2)C1	–	–	–	–	15000	–	110	–	–
C[C@H]1C[C@H]1C(=O)N1CC2CNCC2C1 (mixture of isomers)	110	10000	19000	100	4500	2000	18	–	–
O=C(c1ccco1)[C@H]1C[C@H]2CNC[C@H]2C1 (mixture of isomers)	40	11000	1600	94	3400	2200	13	–	–
CCC(=O)N1CC2CNCC2C1 (mixture of isomers)	130	18000	1300	120	4000	2100	12	Active	Active
O=C([C@@H]1C[C@@H]1F)N1CC2CNCC2C1 (mixture of isomers)	88	13000	930	120	6900	860	17	–	–
C[C@H]1C[C@H]1C(=O)N1CC2CNCC(C2)C1 (mixture of isomers)	140	300	100000	0.5	100	100	2.9	–	–
O=C([C@H]1C[C@@H]1F)N1CC2CNCC(C2)C1 (mixture of isomers)	210	8000	2700	84	400	320	7.3	–	–
CNC(=O)[C@H]1C[C@@H]2CNC[C@@H](C2)C1	5	100000	2000	65	–	–	1.9	–	–
COC(=O)[C@H]1C[C@H]2CNC[C@H]2C1 (mixture of isomers)	100	14000	1200	130	13000	400	8	–	–
C[C@@H]1C[C@H]1C(=O)N1CC2CNCC2C1 (mixture of isomers)	110	14000	1700	100	1900	360	4	–	–

SMILES	Emax [1] [%]	EC50 [2] [nM]	EC50 [3] [nM]	Emax [4] [%]	Ki [5] [nM]	Ki [6] [nM]	Ki [7] [nM]	Activity [8]	Activity [9]
COC(=O)N1CC2CNCC(C2)C1 (mixture of isomers)	–	–	5200	65	–	–	20	–	–
CC(C)NC(=O)[C@H]1C[C@@H]2CNC[C@@H](C2)C1	25	27000	1900	64	11000	6000	23	–	–
C[C@@H]1C[C@@H]1C(=O)N1CC2CNCC2C1 (mixture of isomers)	180	1400	1200	140	350	280	1	–	–
CN1CCC[C@H]1c1cccnc1	100	–	–	100	–	–	–	–	–
CC(=O)N1CC2CNCC2C1 (mixture of isomers)	36	23000	2600	110	–	14000	38	–	–
CNC(=O)[C@H]1C[C@H]2CNC[C@H]2C1 (mixture of isomers)	–	–	–	–	27000	–	180	–	–
CCCNC(=O)[C@H]1C[C@@H]2CNC[C@@H](C2)C1	24	15000	2400	54	10000	4000	6	–	–
C[C@H]1C[C@@H]1C(=O)N1CC2CNCC(C2)C1 (mixture of isomers)	89	8300	10000	21	300	600	28	–	–
O=C([C@@H]1C[C@H]1F)N1CC2CNCC(C2)C1 (mixture of isomers)	130	390	430	77	10	36	1	–	–
O=C(C1CC1)[C@H]1C[C@@H]2CNC[C@@H](C2)C1	10	1300	7100	22	–	4100	43	–	–
O=C([C@H]1C[C@H]1F)N1CC2CNCC2C1 (mixture of isomers)	140	24000	1000	130	1400	380	5	–	–
COC(=O)N1CC2CNCC2C1 (mixture of isomers)	85	16000	–	–	–	14000	23	–	–
C[C@H]1C[C@@H]1C(=O)N1CC2CNCC2C1 (mixture of isomers)	26	34000	5600	68	100000	13000	43	–	–
O=C([C@@H]1C[C@H]1F)N1CC2CNCC2C1 (mixture of isomers)	150	8400	190	130	990	420	9	–	–
C[C@@H]1C[C@@H]1C(=O)N1CC2CNCC(C2)C1 (mixture of isomers)	160	80	1900	5	5	10	0.2	–	–
O=C(C1CC1)[C@H]1C[C@H]2CNC[C@H]2C1 (mixture of isomers)	130	930	18	120	140	70	0.5	–	–
